Series [1] has as its system peripheral blood mononuclear cells (PBMCs). As to the kind of experiment: Cytokine production by stimulated peripheral blood mononuclear cells (LegendPlex-Kits). The class given is cell-based. Particulars: PBMCs from different donors; MDP 20 µg/ml, others 6 and 30 µg/ml. The protocol: (§1) The figures show: • Figure 1: Extent of sequence homology of the nine Lpl proteins encoded by the lpl operon in S. aureus USA300. […] LSP, leader signal peptide. Total length without LSP is 267 aa. We have chosen Lpli as a prototype of Lpl proteins for further studies. • Figure 2: L13 and L15 inhibit S. aureus internalization by HaCaT cells and N/TERT1 cells. N/TERT-1 are immortalized human keratinocytes. L15 was used at 20 µM), L13 at 30 µM and geldanamycin at 5 µM. SNC1 is representative for the many peptides that had no effect • Figure 3: Alignment of Lpl protein homologs. (A) Multiple sequence alignment of Lpls generated by using SnapGene software. Amino acids that match the Lpli sequence are highlighted in yellow. […] A therapeutic model (treatment at intervals post-infection) is already envisaged in the course of this project. • Figure 5: Quantification of the secreted cytokine IL-23 after stimulation of peripheral blood mononuclear cells of different donors with various cell wall components of Staphylococcus aureus. […] The measured IL-23 concentrations are depicted in pg/ml ± standard error of mean (SEM). • Figure 6: Prediction of Lpli structure and localization of L15 (top row, binding area indicated by white arrows) and L13 (bottom row, binding area indicated by white arrows) in Lpli. […]

A further series concerns Hsp90. The note with it: upon Hsp90 inhibition (Taiyab & Rao Ch, 2011); cited from earlier work.
A further series is described as follows: in vitro. The note with it: human; 24h and 48h of exposure; MTT and resazurin; MM6, HEK293, HaCaT, HeLa, HT-29; read-out: cytotoxicity (viability), concentration. The class given is cell-based. The protocol: (§2) Cytotoxicity assays were conducted on 5 different mammalian cell lines after 24h and 48h of exposure to the various compounds, using the colorimetric tetrazolium dye MTT and the fluorometric resazurin (Alamar Blue): MM6 (human cell line with characteristics of mature monocytes), HEK293 (human embryonic kidney cells), HaCaT (human keratinocyte cell line), HeLa (human cervical cancer cell line) and HT-29 (human colon cancer cell line).
On the technique in general: The colour change of resazurin is a common sign of viable cells or microbes.

In series [2] the test system is MM6, HEK293, HaCaT, HeLa and HT-29. As to the kind of experiment: Cytotoxicity assays (MTT and resazurin/Alamar Blue) on 5 mammalian cell lines. The class given is cell-based, human. Particulars: 24h and 48h of exposure. The protocol: as §2
The next series in a line: Solubility remark. The class given is physicochemical. Particulars: compared with L15; reason why only L15 was used in mice.
The test system of the next series is S. aureus. In words: Septic arthritis mouse model (mouse sepsis model). The class given is in vivo. Particulars: mice treated with L15. The protocol:
as §1

Where no end group is shown, it is not given here.

Turning to `CC(=O)N[C@H]1C(O)O[C@H](CO)[C@@H](O)[C@@H]1O[C@H](C)C(=O)N[C@@H](C)C(=O)N[C@H](CCC(=O)O)C(N)=O` (mixture of isomers) [Muramyl Dipeptide (MDP), Muramyl Dipeptide], in series [1], the “levels of TNF, IL-1β, IL-6 or IL-10 induced” value is “high levels”.
As for `C=CCNC1=C2C[C@@H](C)C[C@H](OC)[C@H](O)[C@@H](C)/C=C(\C)[C@H](OC(N)=O)[C@@H](OC)/C=C\C=C(/C)C(=O)NC(=CC1=O)C2=O` [Peptide 17AAG, 17AAG], in the series on Hsp90, the F-actin formation result is reported as “decreased”.
For the compound `COC1=C2C[C@@H](C)C[C@H](OC)[C@H](O)[C@@H](C)/C=C(\C)[C@H](OC(N)=O)[C@@H](OC)/C=C\C=C(/C)C(=O)NC(=CC1=O)C2=O` [geldanamycin], the MCC in the series “in vitro” was not above 10 µM.
Regarding GHYFVTTFY [Peptide L13, GHYFVTTFY], in series [2], the “cytotoxicity (viability), concentration” value is more than 100 µM. Besides, the solubility result in “Solubility remark” is “less soluble”.
Take “TAKGHYFVTTFYRNG [Peptide L15, TAKGHYFVTTFYRNG]”: the “cytotoxicity (viability), concentration” value in series [2] is on record as more than 100 µM. For the same compound, the “behaviour of treated mice (side observation)” value in the series with S. aureus is “hyperactive”.

(Values after patent EP4201483A1, “LPL1 DERIVED IMMUNE ENHANCING PEPTIDES” (Eberhard-Karls-Universität Tübingen, priority 2021, dated 2023).)
